Columns and labels:
[1] = biological target: STK4 (Homo sapiens, UniProt Q13043); test: Enzyme selectivity panel; assay type: biochemical; conditions: 1 mM ATP
Experimental: (§1) The kinase assays were carried out at room temperature in HEPES 50 mM, pH 7.0, NaN3 0.02%, BSA 0.01%, Orthovanadate 0.1 mM, DTT 1 mM, MgCl2 10 mM in a final volume of 10 µL. Test compounds were transferred to the plate wells by ECHO liquid handler (Labcyte, San Jose, CA) with 0.5% dimethyl sulfoxide (DMSO) in the final assay. Peptide/kinase mixtures were diluted in the appropriate enzymatic buffer and 5µL of the mixture was added to a 384-well small volume black plate. Reactions were initiated by the addition of 5 µL ATP in reaction buffer, the final reaction mixture consisted of 500 nM peptide substrate, 1 mM ATP, and appropriate amount of specific kinase. […] The plates were then sealed and centrifuged at 1800 rpm for 2 minutes. […] Half maximal inhibitory concentration (IC50) determination was performed by fitting the curve of percent control activity versus the log of the compound concentration using the GraphPad Prism 6.0 software.

[2] = system: VEGF-induced growth of human umbilical vein endothelial cells (HUVEC); test: HUVEC proliferation stimulated with VEGF; assay type: cell-based
Source text: S2 Figure. […] Directly. An assay was developed to evaluate the proliferation of human umbilical vein endothelial cells (HUVEC) when stimulated with basic FGF (b-FGF) or VEGF.

[3] = biological target: RET (Homo sapiens, UniProt P07949); test: Enzyme selectivity panel; assay type: biochemical; conditions: 1 mM ATP
RET, sequence (P07949 29-1114, species assumed): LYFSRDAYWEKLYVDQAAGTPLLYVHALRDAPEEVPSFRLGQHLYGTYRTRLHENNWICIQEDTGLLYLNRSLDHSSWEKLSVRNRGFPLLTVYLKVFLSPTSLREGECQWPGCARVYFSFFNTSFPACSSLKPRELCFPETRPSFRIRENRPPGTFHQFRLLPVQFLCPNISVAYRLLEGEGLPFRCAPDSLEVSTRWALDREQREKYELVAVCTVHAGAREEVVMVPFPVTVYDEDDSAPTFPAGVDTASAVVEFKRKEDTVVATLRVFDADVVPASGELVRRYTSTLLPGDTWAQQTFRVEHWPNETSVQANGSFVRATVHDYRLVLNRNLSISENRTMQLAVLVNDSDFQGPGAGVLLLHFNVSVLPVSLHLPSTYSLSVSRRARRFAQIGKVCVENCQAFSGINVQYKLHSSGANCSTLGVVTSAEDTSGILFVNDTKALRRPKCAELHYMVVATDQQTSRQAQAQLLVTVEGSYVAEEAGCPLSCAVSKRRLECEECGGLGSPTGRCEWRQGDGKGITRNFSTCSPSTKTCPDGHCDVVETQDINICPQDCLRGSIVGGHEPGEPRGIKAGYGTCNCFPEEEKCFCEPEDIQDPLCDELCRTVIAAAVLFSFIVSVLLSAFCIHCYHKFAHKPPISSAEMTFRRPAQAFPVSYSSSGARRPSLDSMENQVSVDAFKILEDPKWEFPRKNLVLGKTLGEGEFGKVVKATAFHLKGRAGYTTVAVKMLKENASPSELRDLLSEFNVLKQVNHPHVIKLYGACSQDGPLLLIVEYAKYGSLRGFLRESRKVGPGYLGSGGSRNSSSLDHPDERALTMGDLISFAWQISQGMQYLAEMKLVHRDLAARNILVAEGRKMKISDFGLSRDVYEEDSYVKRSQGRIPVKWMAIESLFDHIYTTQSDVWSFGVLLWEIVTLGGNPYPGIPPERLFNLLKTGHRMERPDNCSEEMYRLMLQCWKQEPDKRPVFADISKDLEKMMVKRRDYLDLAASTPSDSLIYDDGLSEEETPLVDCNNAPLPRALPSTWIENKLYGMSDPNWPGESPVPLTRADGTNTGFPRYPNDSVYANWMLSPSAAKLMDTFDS
Experimental: as §1

[4] = biological target: DYRK2 (Homo sapiens, UniProt Q92630); test: Enzyme selectivity panel; assay type: biochemical; conditions: 1 mM ATP
DYRK2, sequence (Q92630 whole entry, species assumed): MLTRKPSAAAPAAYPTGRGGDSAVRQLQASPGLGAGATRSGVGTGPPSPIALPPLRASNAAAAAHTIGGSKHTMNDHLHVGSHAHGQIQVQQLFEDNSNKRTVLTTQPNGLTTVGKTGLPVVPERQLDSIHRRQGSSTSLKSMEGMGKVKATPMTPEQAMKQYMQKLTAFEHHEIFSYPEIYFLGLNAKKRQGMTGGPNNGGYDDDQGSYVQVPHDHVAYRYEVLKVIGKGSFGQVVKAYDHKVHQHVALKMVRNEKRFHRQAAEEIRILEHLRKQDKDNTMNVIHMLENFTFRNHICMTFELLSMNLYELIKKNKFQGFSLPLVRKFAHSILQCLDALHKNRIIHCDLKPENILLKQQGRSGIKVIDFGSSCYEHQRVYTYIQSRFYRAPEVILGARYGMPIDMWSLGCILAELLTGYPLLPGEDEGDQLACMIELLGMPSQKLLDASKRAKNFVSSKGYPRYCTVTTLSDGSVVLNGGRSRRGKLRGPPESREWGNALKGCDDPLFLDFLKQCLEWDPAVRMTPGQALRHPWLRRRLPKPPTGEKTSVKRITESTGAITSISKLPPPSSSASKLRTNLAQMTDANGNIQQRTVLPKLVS
Experimental: as §1

[5] = system: HCC-422; test: Cell viability assay (CellTiter-Glo); assay type: cell-based; conditions: Lung cancer; lacking FGFR alterations
[6] = biological target: TRKA (Homo sapiens, UniProt P04629); test: Enzyme selectivity panel; assay type: biochemical; conditions: 1 mM ATP
TRKA, sequence (P04629 33-796, species assumed): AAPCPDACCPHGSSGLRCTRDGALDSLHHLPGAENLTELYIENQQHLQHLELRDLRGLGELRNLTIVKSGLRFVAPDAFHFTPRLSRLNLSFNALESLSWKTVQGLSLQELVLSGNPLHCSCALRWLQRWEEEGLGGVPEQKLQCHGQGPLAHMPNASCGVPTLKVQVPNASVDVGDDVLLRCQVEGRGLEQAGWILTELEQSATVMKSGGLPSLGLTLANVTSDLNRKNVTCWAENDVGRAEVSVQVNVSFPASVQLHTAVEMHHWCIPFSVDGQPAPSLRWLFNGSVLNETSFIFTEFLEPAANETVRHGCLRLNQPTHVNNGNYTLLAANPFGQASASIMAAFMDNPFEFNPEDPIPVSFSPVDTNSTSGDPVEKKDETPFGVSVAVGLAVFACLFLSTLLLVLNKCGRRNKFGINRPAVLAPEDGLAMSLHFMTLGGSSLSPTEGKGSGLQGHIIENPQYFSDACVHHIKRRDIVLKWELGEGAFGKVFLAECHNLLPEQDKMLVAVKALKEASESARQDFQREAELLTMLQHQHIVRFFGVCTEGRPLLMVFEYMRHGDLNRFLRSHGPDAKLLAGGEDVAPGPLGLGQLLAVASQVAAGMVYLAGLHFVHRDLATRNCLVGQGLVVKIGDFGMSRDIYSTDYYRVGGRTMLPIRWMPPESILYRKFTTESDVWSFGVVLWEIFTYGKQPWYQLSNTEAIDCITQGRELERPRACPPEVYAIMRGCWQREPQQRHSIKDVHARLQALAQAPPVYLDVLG
Experimental: as §1

[7] = Tolerability in xenograft studies; assay type: in vivo
[8] = system: KMS12BM; test: Cell viability assay (CellTiter-Glo); assay type: cell-based; conditions: Homo sapiens, KMS-12-BM; Myeloma; lacking FGFR alterations
[9] = system: J82; test: Cell viability assay (CellTiter-Glo); assay type: cell-based; conditions: Homo sapiens, Bladder, lacking FGFR alterations
[10] = biological target: MAP3K8 (Homo sapiens, UniProt P41279); test: Enzyme selectivity panel; assay type: biochemical; conditions: 1 mM ATP
MAP3K8, sequence (P41279 whole entry, species assumed, the tested form may be a part): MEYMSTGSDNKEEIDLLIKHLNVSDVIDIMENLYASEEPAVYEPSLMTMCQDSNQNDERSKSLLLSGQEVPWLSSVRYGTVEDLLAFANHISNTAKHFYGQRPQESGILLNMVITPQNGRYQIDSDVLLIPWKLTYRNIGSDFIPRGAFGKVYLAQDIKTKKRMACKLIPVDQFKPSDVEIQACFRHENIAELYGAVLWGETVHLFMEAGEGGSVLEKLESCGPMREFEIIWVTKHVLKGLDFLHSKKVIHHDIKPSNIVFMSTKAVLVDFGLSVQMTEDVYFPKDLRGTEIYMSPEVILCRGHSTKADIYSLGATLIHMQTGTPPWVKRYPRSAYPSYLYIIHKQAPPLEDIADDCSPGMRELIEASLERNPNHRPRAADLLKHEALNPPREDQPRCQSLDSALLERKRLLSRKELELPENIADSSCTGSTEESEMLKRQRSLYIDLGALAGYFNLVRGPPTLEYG
Experimental: as §1

[11] = system: KG1 (FGFROP2-FGFR1 fusion positive) AML model; test: KG1 xenograft efficacy; conditions: 0.3 mg/kg once daily, oral, 14 days; P < 0.05
Experimental: The inoculation was performed subcutaneously on the right flank. The treatment of tumor bearing mice was started 7 days after tumor inoculation.

[12] = biological target: NLK (Homo sapiens, UniProt Q9UBE8); test: Enzyme selectivity panel; assay type: biochemical; conditions: 1 mM ATP
NLK, sequence (Q9UBE8 whole entry): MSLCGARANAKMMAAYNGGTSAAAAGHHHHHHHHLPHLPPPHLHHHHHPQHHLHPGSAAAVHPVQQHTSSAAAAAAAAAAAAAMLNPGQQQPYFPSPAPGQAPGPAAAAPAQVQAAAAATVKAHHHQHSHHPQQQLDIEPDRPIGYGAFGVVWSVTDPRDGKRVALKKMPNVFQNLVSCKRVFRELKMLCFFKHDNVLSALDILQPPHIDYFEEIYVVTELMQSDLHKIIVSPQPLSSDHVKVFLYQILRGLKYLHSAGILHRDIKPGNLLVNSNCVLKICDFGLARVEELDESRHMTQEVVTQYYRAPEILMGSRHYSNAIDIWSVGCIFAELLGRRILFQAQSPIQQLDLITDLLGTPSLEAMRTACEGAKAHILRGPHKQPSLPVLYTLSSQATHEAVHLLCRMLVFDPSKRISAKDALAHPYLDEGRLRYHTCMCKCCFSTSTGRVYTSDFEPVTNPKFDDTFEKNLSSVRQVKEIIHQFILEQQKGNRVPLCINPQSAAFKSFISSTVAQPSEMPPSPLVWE
Experimental: as §1

STK4, sequence (Q13043 whole entry, species assumed): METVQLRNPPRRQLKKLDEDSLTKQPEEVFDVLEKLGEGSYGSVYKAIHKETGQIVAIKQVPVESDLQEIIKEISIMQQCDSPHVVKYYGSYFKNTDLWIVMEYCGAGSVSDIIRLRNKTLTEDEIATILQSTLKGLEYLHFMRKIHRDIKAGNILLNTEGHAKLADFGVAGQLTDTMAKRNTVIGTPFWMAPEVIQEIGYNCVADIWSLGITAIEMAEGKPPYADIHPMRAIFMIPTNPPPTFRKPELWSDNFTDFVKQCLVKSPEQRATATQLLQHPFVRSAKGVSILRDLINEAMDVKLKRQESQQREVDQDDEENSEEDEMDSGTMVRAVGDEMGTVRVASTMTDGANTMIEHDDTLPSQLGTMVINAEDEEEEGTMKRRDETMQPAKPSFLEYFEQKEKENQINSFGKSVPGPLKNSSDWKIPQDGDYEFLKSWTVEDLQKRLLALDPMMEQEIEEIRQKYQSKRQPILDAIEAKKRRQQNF

`CCN1C(=O)N(c2c(F)c(OC)cc(OC)c2F)Cc2cnc3[nH]c(CN4CCOCC4)cc3c21` [INCB054828, pemigatinib] showed an IC50 [1] of over 10 µM, an IC50 [2] of 0.801 µM and an IC50 [3] of over 10 µM. For the same compound, the IC50 [4] was over 10 µM, the GI50 [5] was over 5 µM and the IC50 [6] was over 10 µM. The overt toxicities ([7]; 0.3–1 mg/kg once daily, longer than 1 month) was “no overt toxicities were observed”, the “tolerability (body weight changes, clinical signs)” value ([7]; doses up to and including 1 mg/kg, up to 42 days) was “well tolerated” and the GI50 [8] was 2.89 µM. For the same compound, the GI50 [9] was over 5 µM, the IC50 [10] was over 10 µM and the “efficacy against subcutaneous xenograft” value [11] was “significant efficacy”. For the same compound, the IC50 [12] was over 10 µM.

Source: publication PMC7313537 (PLoS ONE, 2020)
